Test results published in US20130079345A1, “[…] ACTIVE DISUBSTITUTED TRIAZINE DERIVATIVES” (BAYER INTELLECTUAL PROPERTY GMBH, priority 2010, published 2013).
Structures can show the parent of a compound that is named as a salt.

Experiments:
MDAMB468 cells = test: Cell viability assay, MDAMB468 cells; format: cell-based; settings: Homo sapiens, MDA-MB-468, 72 h, Cell Titer Glo
Procedure: HeLa- or MDAMB468-Cells or MATU ADR, H460, DU145, CACO-2 or B16F10 cells were maintained in RPMI 1640 or McCoy's 5A cell culture medium+glutamine (PAN Biotech GmbH, Aidenbach, Germany; order no. P04-22100; P04-05500) supplemented with 10% fetal calf serum “Gold” (PAA Laboratories GmbH, Pasching, Austria; order no. A15-151) and grown at 37° C., 5% CO2. For the cell viability assay, cells were seeded with a density of 400 (Hela cells, DSMZ Braunschweig order no. ACC57) or 800 (MDAMB468 cells, ATCC order no. HTB-132) per well in 25 μL in 384-well plates (Greiner Bio-One, Frickenhausen, Germany; order no. 781080). After overnight incubation at 37° C./5% CO2, 25 nL or 75 nL compound were added to each sample well by using BIOMEK FXP Laboratory Automation Workstation (Beckman Coulter, USA). Wells with cells and 0.1% or 0.3% DMSO in culture medium were used as positive controls, wells with cells and 10 μM staurosporine in culture medium were used as negative controls. The cells were incubated with the compounds for 72 h at 37° C./5% CO2. For measurement of cell viability […] Cell Titer Glo reagent (Promega, Madison, USA; order no. G7573), 1:2 diluted with cell culture medium, was added to each well. The 384well-plates were placed for 2 min on an orbital microplate shaker and incubated for further 10 min at room temperature to stabilize the luminescence signal. Luminescence was measured by Envision Plate Reader (Perkin Elmer, USA). EC50 values were calculated with the software Excel Fit (IDBS, Guildford, UK) from 3-fold dilution series comprising at least 8 concentrations in duplicates.

CDK9/CycT1 = molecular target: T1, CDK9/CycT1 (Homo sapiens, UniProt P50750); test: CDK9/CycT1 kinase assay (TR-FRET); format: biochemical; settings: ATP 10 μM
T1 construct: Recombinant full-length His-tagged human CDK9 and CycT1; His; purchased Invitrogen PV4131; host or cells: insect cells
T1 sequence (P50750 whole entry): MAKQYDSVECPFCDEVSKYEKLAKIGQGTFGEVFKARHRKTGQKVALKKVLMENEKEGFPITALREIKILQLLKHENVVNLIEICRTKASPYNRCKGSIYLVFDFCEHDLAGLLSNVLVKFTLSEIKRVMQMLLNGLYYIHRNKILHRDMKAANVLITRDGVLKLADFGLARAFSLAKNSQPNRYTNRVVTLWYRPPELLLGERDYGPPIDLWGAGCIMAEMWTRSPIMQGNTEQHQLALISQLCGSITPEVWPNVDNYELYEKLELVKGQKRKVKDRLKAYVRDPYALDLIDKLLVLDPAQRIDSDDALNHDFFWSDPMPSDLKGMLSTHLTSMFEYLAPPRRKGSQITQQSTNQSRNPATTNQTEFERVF
T1 sequence (O60563 whole entry partner): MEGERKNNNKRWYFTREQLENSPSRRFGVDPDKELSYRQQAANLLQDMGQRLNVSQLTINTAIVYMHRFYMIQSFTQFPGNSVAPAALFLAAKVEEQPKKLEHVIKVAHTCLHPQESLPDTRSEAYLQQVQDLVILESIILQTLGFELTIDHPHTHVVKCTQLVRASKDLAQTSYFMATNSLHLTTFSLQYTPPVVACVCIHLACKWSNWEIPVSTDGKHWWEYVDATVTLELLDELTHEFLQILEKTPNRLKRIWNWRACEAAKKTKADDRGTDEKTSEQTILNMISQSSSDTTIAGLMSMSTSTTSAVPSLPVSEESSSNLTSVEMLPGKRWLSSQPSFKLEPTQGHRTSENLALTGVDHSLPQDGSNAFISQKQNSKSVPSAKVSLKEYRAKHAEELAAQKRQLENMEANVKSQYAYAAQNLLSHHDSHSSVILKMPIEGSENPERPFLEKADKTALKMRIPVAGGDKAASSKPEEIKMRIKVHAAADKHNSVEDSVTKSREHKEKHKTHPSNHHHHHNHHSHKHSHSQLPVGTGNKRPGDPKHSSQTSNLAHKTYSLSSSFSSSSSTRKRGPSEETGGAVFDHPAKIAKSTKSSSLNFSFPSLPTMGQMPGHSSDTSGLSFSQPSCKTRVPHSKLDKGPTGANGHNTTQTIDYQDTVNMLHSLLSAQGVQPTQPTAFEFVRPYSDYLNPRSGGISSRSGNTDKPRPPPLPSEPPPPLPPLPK
Description: CDK9/CycT1-inhibitory activity of compounds of the present invention was quantified employing the CDK9/CycT1 TR-FRET assay as described in the following paragraphs.
Recombinant full-length His-tagged human CDK9 and CycT1, expressed in insect cells and purified by Ni-NTA affinity chromatography, were purchased from Invitrogen (catalogue number PV4131). A biotinylated peptide biotin-Ttds-[…] (C-terminus in amide form), which can be purchased from e.g the company JERINI Peptide Technologies (Berlin, Germany), was used as a substrate for the kinase reaction.
For the assay, 50 nl of a 100-fold concentrated solution of the test compound in DMSO was pipetted into a well of a black low-volume 384-well microtiter plate (Greiner Bio-One, Frickenhausen, Germany), 2 μl of a solution of CDK9/CycT1 in aqueous assay buffer [50 mM Tris/HCl pH 8.0], 10 mM MgCl2, 1.0 mM dithiothreitol, 0.1 mM sodium ortho-vanadate, 0.01% (v/v) Nonidet-P40 (Sigma)] were added. The mixture was incubated at 22° C. for 15 min to allow pre-binding of the test compounds to the enzyme before the start of the kinase reaction. […] The resulting mixture was incubated at 22° C. for a reaction time of 25 minutes. The concentration of CDK9/CycT1 was adjusted depending of the activity of the enzyme lot and was chosen appropriately for measurements in the linear range of the assay. Typical concentrations were in the range of 1 μg/ml. The reaction was stopped by the addition of 5 μl of a solution of TR-FRET detection reagents (0.2 μM streptavidine-XL and 1 nM anti-RB(pSer807/pSer811)-antibody from BD Pharmingen [#558389] and 1.2 nM LANCE EU-W1024 labeled anti-mouse IgG antibody [Perkin-Elmer, product no. AD0077]) in an aqueous EDTA-solution (100 mM EDTA, 0.2% (w/v) bovine serum albumin in 100 mM HEPES/NaOH, pH 7.0).
The resulting mixture was incubated at 22° C. for one hour to allow the formation of a complex between the phosphorylated biotinylated peptide and the detection reagents. Subsequently, the amount of phosphorylated substrate was evaluated by measurement of the resonance energy transfer from the Eu-chelate to the streptavidine-XL. Therefore, the fluorescence emissions at 620 nm and 665 nm after excitation at 350 nm were measured in a HTRF reader, e.g. a Rubystar (BMG Labtechnologies, Offenburg, Germany) or a Viewlux (Perkin-Elmer). The ratio of the emissions at 665 nm and at […] was taken as a measure for the amounts of phosphorylated substrate. The data were normalised, i.e. enzyme reaction without inhibitor corresponds to 0% inhibition, and all other assay components in the absence of the enzyme correspond to 100% inhibition. IC50 values were calculated by a 4-parameter fit using in-house software.

Row | Compound | IC50 (MDAMB468 cells) [µM] | IC50 (CDK9/CycT1; values in nM) [nM] | IC50 (CDK9/CycT1; values given in μM) [nM]
1 | COc1ccccc1-c1ncnc(Nc2cccc(CS(N)(=O)=O)c2)n1 [B1′, 3-[(4-(2-Methoxyphenyl)-1,3,5-triazin-2-yl)amino]benzenemethanesulfonamide trifluoroacetic acid salt] | 2.99 |  | 
2 | COc1cc(F)ccc1-c1ncnc(Nc2cccc(CS(N)(=O)=O)c2)n1 [B2′, 1-(3-{[4-(4-fluoro-2-methoxyphenyl)-1,3,5-triazin-2-yl]amino}phenyl)methanesulfonamide hydrochloride] |  | 14 | 
3 | NS(=O)(=O)Cc1cccc(Nc2ncnc(-c3ccccc3OCc3ccccc3)n2)c1 [B13′, 3-[(4-(2-Benzyloxyphenyl)-1,3,5-triazin-2-yl)amino]benzenemethanesulfonamide trifluoroacetic acid salt] | 0.16 |  | 
4 | COc1ccccc1-c1ncnc(Nc2cccc(S(N)(=O)=O)c2)n1 [C1′, 3-[(4-(2-Methoxyphenyl)-1,3,5-triazin-2-yl)amino]benzenesulfonamide trifluoroacetic acid salt] | 0.8 |  | 
5 | COc1ccccc1-c1ncnc(Nc2cccc(CS(N)(=O)=O)c2)n1 [Compound B1, 3-[(4-(2-Methoxyphenyl)-1,3,5-triazin-2-yl)amino]benzenemethanesulfonamide] |  | 21 | 
6 | COc1cc(F)ccc1-c1ncnc(Nc2cccc(CS(N)(=O)=O)c2)n1 [Compound B2, 3-[(4-(4-Fluoro-2-methoxyphenyl)-1,3,5-triazin-2-yl)amino]benzenemethanesulfonamide] | 0.42 | 8.1 | 
7 | NS(=O)(=O)Cc1cccc(Nc2ncnc(-c3ccccc3OCc3ccccc3)n2)c1 [Compound B13, 3-[(4-(2-Benzyloxyphenyl)-1,3,5-triazin-2-yl)amino]benzenemethanesulfonamide] |  | 3.2 | 
8 | NS(=O)(=O)Cc1cccc(Nc2ncnc(-c3ccccc3Oc3ccccc3)n2)c1 [Compound B14, 1-(3-{[4-(2-phenoxyphenyl)-1,3,5-triazin-2-yl]amino}phenyl)methanesulfonamide] |  | 62 | 
9 | COc1ccccc1-c1ncnc(Nc2cccc(CCS(N)(=O)=O)c2)n1 [Compound D1, 2-[3-((4-(2-Methoxyphenyl)-1,3,5-triazin-2-yl)amino)phenyl]ethanesulfonamide] | 4.61 |  | 
10 | CNS(=O)(=O)Cc1cccc(Nc2cc(-c3ccccc3OC)ncn2)c1 [Ref2, C-{3-[6-(2-Methoxy-phenyl)-pyrimidin-4-ylamino]-phenyl}-N-methyl methanesulfonamide, reference compound] |  | 40 | 
11 | COc1ccccc1-c1cc(Nc2cccc(CS(=O)(=O)N(C)C)c2)ncn1 [Ref4, C-{3-[6-(2-Methoxy-phenyl)-pyrimidin-4-ylamino]-phenyl}-N,N-dimethylmethanesulfonamide, reference compound] |  | 49 | 

Second part, the compound after the results:

Row | IC50 (MDAMB468 cells) [µM] | IC50 (CDK9/CycT1; values in nM) [nM] | IC50 (CDK9/CycT1; values given in μM) [nM] | Compound
12 | 0.83 |  |  | COc1ccccc1-c1ncnc(Nc2cccc([N+](=O)[O-])c2)n1 [Compound H1, 4-(2-Methoxyphenyl)-N-(3-nitrophenyl)-1,3,5-triazine-2-amine]
13 | 4.5 |  |  | CCCS(=O)(=O)Nc1cccc(Nc2ncnc(-c3ccccc3OC)n2)c1 [Compound L1, N-[3-((4-(2-Methoxyphenyl)-1,3,5-triazin-2-yl)amino)phenyl]-propanesulfonamide]
14 | 13.3 |  |  | COc1ccccc1-c1ncnc(Nc2ccccc2)n1 [Compound P1, 4-(2-Methoxyphenyl)-N-phenyl-1,3,5-triazine-2-amine]
15 |  | 28 |  | CC(C)Oc1cc(F)ccc1-c1ncnc(Nc2cccc(CS(N)(=O)=O)c2)n1 [Compound U2, 1-[3-({4-[4-fluoro-2-(propan-2-yloxy)phenyl]-1,3,5-triazin-2-yl}amino)phenyl]methanesulfonamide]
16 |  |  | 3300 | N#Cc1cc(F)ccc1-c1ncnc(Nc2cccc(CS(N)(=O)=O)c2)n1 [Compound U3, 1-(3-{[4-(2-cyano-4-fluorophenyl)-1,3,5-triazin-2-yl]amino}phenyl)methanesulfonamide]
17 |  | 14 |  | COc1cc(F)c(F)cc1-c1ncnc(Nc2cccc(CS(N)(=O)=O)c2)n1 [Compound U7, 1-(3-{[4-(4,5-difluoro-2-methoxyphenyl)-1,3,5-triazin-2-yl]amino}phenyl)methanesulfonamide]
18 |  | 320 |  | COc1cc(F)ccc1-c1ncnc(Nc2ccc(S(C)(=O)=O)nc2)n1 [Compound U8, 4-(4-fluoro-2-methoxyphenyl)-N-[6-(methylsulfonyl)pyridin-3-yl]-1,3,5-triazin-2-amine]
